This experiment has as its target T1, PKC-ε (Mus musculus, UniProt P16054).
T1 construct: from tissue; host or cells: brain of C57B/6 male mice
T1 sequence (P16054 1-737): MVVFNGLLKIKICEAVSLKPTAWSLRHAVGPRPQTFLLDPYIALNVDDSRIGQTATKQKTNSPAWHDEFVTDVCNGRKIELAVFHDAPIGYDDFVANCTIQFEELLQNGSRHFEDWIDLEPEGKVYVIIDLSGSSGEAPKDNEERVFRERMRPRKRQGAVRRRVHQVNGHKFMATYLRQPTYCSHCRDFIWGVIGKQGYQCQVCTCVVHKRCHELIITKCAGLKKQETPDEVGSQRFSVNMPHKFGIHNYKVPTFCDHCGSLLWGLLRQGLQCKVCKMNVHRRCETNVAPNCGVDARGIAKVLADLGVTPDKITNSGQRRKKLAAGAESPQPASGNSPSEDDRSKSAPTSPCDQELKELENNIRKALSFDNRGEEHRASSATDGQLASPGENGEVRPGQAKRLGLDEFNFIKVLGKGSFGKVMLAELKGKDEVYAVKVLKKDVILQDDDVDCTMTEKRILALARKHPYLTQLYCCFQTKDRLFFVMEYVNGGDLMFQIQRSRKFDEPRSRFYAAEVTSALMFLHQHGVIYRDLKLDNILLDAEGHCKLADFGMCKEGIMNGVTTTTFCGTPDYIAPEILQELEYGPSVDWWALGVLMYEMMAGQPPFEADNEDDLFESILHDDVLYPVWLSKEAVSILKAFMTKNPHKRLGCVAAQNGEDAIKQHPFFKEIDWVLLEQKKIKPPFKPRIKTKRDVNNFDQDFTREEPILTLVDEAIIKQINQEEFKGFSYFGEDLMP
Nature of the experiment: Total PKC (PKC-ε) level / downregulation in brain after i.v. bryostatin dosing regimens. It counts as in vivo. The following applies: mice. The protocol: FIGS. […] (A) Downregulation of brain PKCε in mice after intravenous administration of bryostatin at doses of 10 μg/m^2, 15 μg/m^2, and 25 μg/m^2 for 1-6 consecutive weeks. (B) Downregulation of brain PKCε in mice after intravenous administration of bryostatin at two different doses (i) 2×25+2 μg/m^2, and (ii) 25 μg/m^2. Dosing regimen is disclosed along the abscissa.
Mouse studies were performed using bryostatin-i in accordance with the protocol described below. The following metrics were used to evaluate dosing regimens: induction of brain postsynaptic anchoring protein PSD-95, upregulation of BDNF levels in brain, minimal downregulation of PKC-ε levels, and elevation of brain and plasma concentrations of bryostatin. Groups of 2-3 mice were formed and housed in an approved research animal facility. Water was give ad libitum. A first study involved three groups of mice with animals in each group dosed weekly for 1, 2, 3, or 6 consecutive weeks. Each group had its own control group containing the same number of mice. In this study, mice in the first, second and third groups received an intravenous (i.v.) injection of 10 μg/m^2, 15 μg/m^2, and 25 μg/m^2 dose of bryostatin respectively. For each dose, mice in that group received a single injection of bryostatin weekly for predetermined number of consecutive weeks. Following dosing, mice were sacrificed and the blood and brain of each animal was collected for further analysis.
Cells were harvested in homogenizing buffer containing 10 mM Tris-Cl (pH 7.4), 1 mM PMSF (phenylmethylsulfonyl fluoride), 1 mM EGTA, 1 mM EDTA. 50 mM NaF, and 20 μM leupeptin and were lysed by sonication. The homogenate was centrifuged at 100,000×g for 15 min at 4° C. to obtain the cytosolic fraction (supernatant) and membrane (pellet). The pellet was resuspended in the homogenizing buffer by sonication. Protein concentration was measured using the Coomassie Plus (Bradford) Protein Assay kit (Pierce, USA). Following quantification, 20 μg of protein from each sample was subjected to SDS-PAGE analysis in 4-20% gradient Tris-Glycine gel (Invitrogen, USA). The separated protein was then transferred to nitrocellulose membrane. The membrane was blocked with BSA at room temperature for 15 min and was incubated with primary antibody over night at 4° C. After the incubation, it was washed three times with TBS-T (Tris Buffered saline-Tween 20) and further incubated with alkaline phosphatase conjugated secondary antibody (Jackson Immunoresearch Laboratories. USA) at 1:10,000 dilution for 45 min. The membrane was finally washed three times with TBS-T and developed using the 1-step NBT-BCIP substrate (Pierce, USA). Western Blot was imaged in the Image Quant RT-ECL (GE Life Sciences, Piscataway, N.J.) and densitometric quantification was performed using the IMAL software (Blanchette Rockefeller Neurosciences institute, Morgantown, W. Va.). For translocation assays, PKC activation was represented as the percentage of total protein in the membrane (membrane/cytosol+membrane). […]
C57B/6 male mice weighing between 19-21 grams were obtained from Charles River and housed in cages, 1 mouse/cage in a vivarium at the Blanchette Rockefeller Neurosciences institute. Animals were allowed access to water ad libitum.
In these studies, bryostatin was administered intravenously (i.v.) by injection into the tail vein of a mouse. Stock solutions of bryostatin were prepared in dimethyl sulfoxide (DMSO). Prior to administration to a mouse, the stock DMSO solution of bryostatin was diluted to a predetermined concentration by dilution with phosphate buffered saline/saline (PBS/saline).
Three different dosing regimens (injection schedules) were compared. The dosing regimens tested were weekly dosing, dosing every other week (alternating weeks), and spaced or intermittent dosing. […]

Consider `CCC/C=C/C=C/C(=O)O[C@H]1/C(=C/C(=O)OC)C[C@H]2C[C@H]([C@@H](C)O)OC(=O)C[C@H](O)C[C@@H]3C[C@H](OC(C)=O)C(C)(C)[C@](O)(C[C@@H]4C/C(=C/C(=O)OC)C[C@H](/C=C/C(C)(C)[C@]1(O)O2)O4)O3` [Bryostatin-1], for which the “PKC-ε downregulation” value is, setting by setting: (10 μg/m^2 weekly, total of 6 consecutive weeks) “appeared to result in downregulation”; (25 μg/m^2, continued dosing, 1 on/1 off and 2 on/1 off regimens) “additional downregulation occurred”. Besides, the “PKC downregulation” value (25 μg/m^2, rest intervals increased to three weeks (3 on/3 off)) was “significantly reduced PKC downregulation”. For the same compound, the “PKC-ε downregulation in brain” value (25 μg/m^2, three consecutive weekly doses, versus lower doses) is on record as “did not produce more PKC-ε downregulation”. The “PKC (% of Control), total PKC level” value is, setting by setting: (cage 4: 25 μg/m^2 i.v. once weekly, 3 weeks, 24 h) 84.841 % of Control; (cage 5: 25 μg/m^2 i.v., 3 on/3 off/3 on (9 weeks), 24 h) 78.2 % of Control; (cage 6: 10 μg/m^2 i.v. once weekly, 3 weeks, 24 h) 95.197 % of Control; (cage 8: 10 μg/m^2 i.v. once weekly, 6 weeks, 24 h) 80.441 % of Control; (cage 9: 25 μg/m^2 i.v., alternating, weeks 1 and 3, 24 h) 63.02 % of Control; (cage 10: 25 μg/m^2 i.v., alternating, weeks 1, 3, 5, 7, 9, 24 h) 59.11 % of Control. Further, the “PKC (% of Control), total PKC level” value is, setting by setting: (cage 11: 25 μg/m^2 i.v., weeks 1 and 2, collection week 3 (7 d delay)) 56.7 % of Control; (cage 12: 25/20 μg/m^2 i.v., injections weeks 1, 2, 4, 6, 8, collection week 9 (7 d delay)) 49.92 % of Control; (cage 18: 15 μg/m^2 i.v. once weekly, 3 weeks, 24 h) 66.430 % of Control; (cage 22 (regimen not listed in Tables 2/3)) 89.206 % of Control; (cage 24: 25 μg/m^2 i.v. once weekly, 2 weeks, 24 h) 96.723 % of Control.

Values taken from patent US11173140B2, “Dosing regimens of PKC activators” (COGNITIVE RESEARCH ENTERPRISES, INC., priority 2015, dated 2021).
